Results as given in ChEMBL document CHEMBL3885881, “DrugMatrix”.

Organism: Rattus norvegicus
Assay: DrugMatrix - Regimen: Daily Repeat
Type: toxicity, organism-based, Sprague-Dawley
Set-up: regimen Daily Repeat, gender Male, age 6-8 weeks
Conditions: in vivo, po, route oral GAVAGE, vehicle .5 % CMC; for ABSOLUTE BASOPHIL / ABSOLUTE EOSINOPHIL / ABSOLUTE LYMPHOCYTE / ABSOLUTE MONOCYTE / ABSOLUTE SEGMENTED NEUTROPHIL / BASOPHIL / EOSINOPHIL / ERYTHROCYTE COUNT / HEMATOCRIT / HEMOGLOBIN / LEUKOCYTE COUNT / LYMPHOCYTE / MEAN CORPUSCULAR HEMOGLOBIN / MEAN CORPUSCULAR HEMOGLOBIN CONCENTRATION / MEAN CORPUSCULAR VOLUME / MONOCYTE / NEUTROPHIL / NUCLEATED RED BLOOD CELLS / PLATELET COUNT: tissue Blood; for ALANINE AMINOTRANSFERASE / ALBUMIN / ALKALINE PHOSPHATASE / ASPARTATE AMINOTRANSFERASE / BLOOD UREA NITROGEN / CARBON DIOXIDE / CHLORIDE / CHOLESTEROL / CREATINE PHOSPHOKINASE / CREATININE / GLUCOSE / LACTATE DEHYDROGENASE / LIPASE / PHOSPHORUS / POTASSIUM / SODIUM / TOTAL BILIRUBIN / TOTAL PROTEIN / URIC ACID: tissue Plasma
[1] = 0 mg/kg, 72 h, dose level Control, time 3 day
[2] = 0 mg/kg, 120 h, dose level Control, time 5 day
[3] = 55 mg/kg, 72 h, dose level Low, time 3 day

CCN1CCCC1CNC(=O)c1cc(S(N)(=O)=O)ccc1OC (centres undefined) [SULPIRIDE]
ABSOLUTE BASOPHIL [1]: 0 CELLS/uL | ABSOLUTE EOSINOPHIL [1]: 0 CELLS/uL | ABSOLUTE LYMPHOCYTE [1]: 12269.67 CELLS/uL | ABSOLUTE MONOCYTE [1]: 160.33 CELLS/uL | ABSOLUTE SEGMENTED NEUTROPHIL [1]: 970 CELLS/uL | BASOPHIL [1]: 0% | EOSINOPHIL [1]: 0% | ERYTHROCYTE COUNT [1]: 5.76 x10E6/uL | HEMATOCRIT [1]: 36.57% | HEMOGLOBIN [1]: 14.22 G/DL | LEUKOCYTE COUNT [1]: 13.4 x10E3/uL | LYMPHOCYTE [1]: 91.67% | MEAN CORPUSCULAR HEMOGLOBIN [1]: 24.67 pg | MEAN CORPUSCULAR HEMOGLOBIN CONCENTRATION [1]: 38.85 G/DL | MEAN CORPUSCULAR VOLUME [1]: 63.52 fL | MONOCYTE [1]: 1.17% | NEUTROPHIL [1]: 7.17% | NUCLEATED RED BLOOD CELLS [1]: 0.33 /100WBC | PLATELET COUNT [1]: 1250.83 x10E3/uL | ALANINE AMINOTRANSFERASE [1]: 49.17 u/L | ALBUMIN [1]: 4.33 G/DL | ALKALINE PHOSPHATASE [1]: 378.5 u/L | ASPARTATE AMINOTRANSFERASE [1]: 82.17 u/L | BLOOD UREA NITROGEN [1]: 15 mg/dL | CARBON DIOXIDE [1]: 34.33 mmol/L | CHLORIDE [1]: 99.17 MEQ/L | CHOLESTEROL [1]: 71.17 mg/dL | CREATINE PHOSPHOKINASE [1]: 258.67 u/L | CREATININE [1]: 0.18 mg/dL | GLUCOSE [1]: 142.67 mg/dL | LACTATE DEHYDROGENASE [1]: 154.33 u/L | LIPASE [1]: 9 u/L | PHOSPHORUS [1]: 11.67 mg/dL | POTASSIUM [1]: 7.13 MEQ/L | SODIUM [1]: 142.22 MEQ/L | TOTAL BILIRUBIN [1]: 0.18 mg/dL | TOTAL PROTEIN [1]: 5.77 G/DL | URIC ACID [1]: 1.55 mg/dL | ABSOLUTE BASOPHIL [2]: 0 CELLS/uL | ABSOLUTE EOSINOPHIL [2]: 23.33 CELLS/uL | ABSOLUTE LYMPHOCYTE [2]: 14943.67 CELLS/uL | ABSOLUTE MONOCYTE [2]: 32 CELLS/uL | ABSOLUTE SEGMENTED NEUTROPHIL [2]: 1084.33 CELLS/uL | BASOPHIL [2]: 0% | EOSINOPHIL [2]: 0.17% | ERYTHROCYTE COUNT [2]: 5.71 x10E6/uL | HEMATOCRIT [2]: 35.28% | HEMOGLOBIN [2]: 14.27 G/DL | LEUKOCYTE COUNT [2]: 16.08 x10E3/uL | LYMPHOCYTE [2]: 93% | MEAN CORPUSCULAR HEMOGLOBIN [2]: 25.02 pg | MEAN CORPUSCULAR HEMOGLOBIN CONCENTRATION [2]: 40.43 G/DL | MEAN CORPUSCULAR VOLUME [2]: 61.82 fL | MONOCYTE [2]: 0.17% | NEUTROPHIL [2]: 6.67% | NUCLEATED RED BLOOD CELLS [2]: 0.33 /100WBC | PLATELET COUNT [2]: 1274 x10E3/uL | ALANINE AMINOTRANSFERASE [2]: 54.17 u/L | ALBUMIN [2]: 4.22 G/DL | ALKALINE PHOSPHATASE [2]: 373.17 u/L | ASPARTATE AMINOTRANSFERASE [2]: 81.83 u/L | BLOOD UREA NITROGEN [2]: 16.67 mg/dL | CARBON DIOXIDE [2]: 30.33 mmol/L | CHLORIDE [2]: 99 MEQ/L | CHOLESTEROL [2]: 71 mg/dL | CREATINE PHOSPHOKINASE [2]: 273.5 u/L | CREATININE [2]: 0.22 mg/dL | GLUCOSE [2]: 141.83 mg/dL | LACTATE DEHYDROGENASE [2]: 153.67 u/L | LIPASE [2]: 10.33 u/L | PHOSPHORUS [2]: 11.38 mg/dL | POTASSIUM [2]: 7.08 MEQ/L | SODIUM [2]: 142.75 MEQ/L | TOTAL BILIRUBIN [2]: 0.18 mg/dL | TOTAL PROTEIN [2]: 6.1 G/DL | URIC ACID [2]: 1.67 mg/dL | ABSOLUTE BASOPHIL [3]: 0 CELLS/uL | ABSOLUTE EOSINOPHIL [3]: 0 CELLS/uL | ABSOLUTE LYMPHOCYTE [3]: 13264 CELLS/uL | ABSOLUTE MONOCYTE [3]: 100 CELLS/uL | ABSOLUTE SEGMENTED NEUTROPHIL [3]: 869.33 CELLS/uL | BASOPHIL [3]: 0% | EOSINOPHIL [3]: 0% | ERYTHROCYTE COUNT [3]: 5.78 x10E6/uL | HEMATOCRIT [3]: 37.4% | HEMOGLOBIN [3]: 14.93 G/DL | LEUKOCYTE COUNT [3]: 14.23 x10E3/uL | LYMPHOCYTE [3]: 93.33% | MEAN CORPUSCULAR HEMOGLOBIN [3]: 25.87 pg | MEAN CORPUSCULAR HEMOGLOBIN CONCENTRATION [3]: 39.97 G/DL | MEAN CORPUSCULAR VOLUME [3]: 64.7 fL | MONOCYTE [3]: 0.67% | NEUTROPHIL [3]: 6% | NUCLEATED RED BLOOD CELLS [3]: 0 /100WBC | PLATELET COUNT [3]: 1265.67 x10E3/uL | ALANINE AMINOTRANSFERASE [3]: 40.33 u/L | ALBUMIN [3]: 4.83 G/DL | ALKALINE PHOSPHATASE [3]: 335 u/L | ASPARTATE AMINOTRANSFERASE [3]: 84.67 u/L | BLOOD UREA NITROGEN [3]: 20.33 mg/dL | CARBON DIOXIDE [3]: 26 mmol/L | CHLORIDE [3]: 104 MEQ/L | CHOLESTEROL [3]: 78.67 mg/dL | CREATINE PHOSPHOKINASE [3]: 305 u/L | CREATININE [3]: 0.26 mg/dL | GLUCOSE [3]: 178.33 mg/dL | LACTATE DEHYDROGENASE [3]: 183 u/L | LIPASE [3]: 11.67 u/L | PHOSPHORUS [3]: 15 mg/dL | POTASSIUM [3]: 6.9 MEQ/L | SODIUM [3]: 149.67 MEQ/L | TOTAL BILIRUBIN [3]: 0.13 mg/dL | TOTAL PROTEIN [3]: 6.7 G/DL | URIC ACID [3]: 2.27 mg/dL
